Structures are written as SMILES. Where a name gives a salt, the structure may show the parent alone.

One assay concerns CD4+ and CD8+ T-cells. As to the kind of experiment: Flow cytometry, intracellular staining of IFN-γ, IL-2 and TNF-α after PMA/ionomycin. The format is in vivo, mouse. On the procedure: FIG. 5 is a graphical representation showing that dual epigenetic-immunotherapy re-educates and re-programs the T-cell repertoire. A. Cells stimulated with PMA/ionomycin for 4 hours in the presence of Brefeldin A. Cells were surfaced stained with CD45, CD3, CD4, CD8, CD44, CD62L (for naïve, effector and central memory), CD25 and FoxP3 (for Tregs) and analyzed via Flow cytometry. A Mann-Whitney non-parametric t-test was used to compare control vs other groups (*p<0.05, n=2-5). […] Representative images for each dataset are shown. TNFI values for EOMES, TBET and Ki67 measured using Image) to select the nucleus minus background. Graphs represent the % change of expression relative to control group for CD8^+ T-cells. (n>20 individual cells, Group A=Control, Group C: PD1 (10 mg/kg), Group D: Phenelzine (40 mg/kg), Group F: PD1+Phenelzine). C. Cells stimulated with PMA/ionomycin for 4 hours in the presence of Brefeldin A. Cell were surfaced stained with CD45, CD3, CD4, CD8 and intracellular staining of IFN-γ, IL-2 and TNF-α in the presence of Brefeldin A and analyzed via flow cytometry. A Mann-Whitney non-parametric t-test was used to compare control vs other groups (*p<0.05, **p<0.008; n=2-5). […] Representative images for each dataset are shown. TNFI values for TNFα and IFNγ measured using ImageJ to select the nucleus minus background. Graphs represent the % change of expression relative to control group for CD8^+ T-cells. […]
Cells were surfaced stained with CD49b, F4/80 and intracellular stained for IFN-γ, TNF-α and IL-10. To label NK cells and the macrophages (M1/M2) in the tumor microenvironment or a suite of antibodies to label CD8^+ T-Cells (Cells were surfaced stained with CD45, CD3, CD4, CD8, CD44, CD62L (for naïve, effector and central memory). Cells were finally resuspended in PBS 2% FBS and flow cytometry performed on FACS Fortessa (BD) or FACS LSRII (BD). Analysis of data was done using FlowJo® analysis software and % cell populations calculated from the raw data. A Mann-Whitney non-parametric t-test was used to compare control vs other groups.
Background: Flow cytometry measures light scatter and fluorescence of single cells or particles in a stream.

The next assay concerns IFN-γ and TNF-α. Description: Immunofluorescence of IFN-γ and TNF-α in CD8+ T-cells. The format is in vivo, mouse. The following applies: IF % change. How it is done:
FIG. 5 is a graphical representation showing that dual epigenetic-immunotherapy re-educates and re-programs the T-cell repertoire. A. Cells stimulated with PMA/ionomycin for 4 hours in the presence of Brefeldin A. Cells were surfaced stained with CD45, CD3, CD4, CD8, CD44, CD62L (for naïve, effector and central memory), CD25 and FoxP3 (for Tregs) and analyzed via Flow cytometry. A Mann-Whitney non-parametric t-test was used to compare control vs other groups (*p<0.05, n=2-5). […] Representative images for each dataset are shown. TNFI values for EOMES, TBET and Ki67 measured using Image) to select the nucleus minus background. […] Cells stimulated with PMA/ionomycin for 4 hours in the presence of Brefeldin A. Cell were surfaced stained with CD45, CD3, CD4, CD8 and intracellular staining of IFN-γ, IL-2 and TNF-α in the presence of Brefeldin A and analyzed via flow cytometry. […] TNFI values for TNFα and IFNγ measured using ImageJ to select the nucleus minus background. […]
A total of 2×10^5 cells were injected per mouse into mammary gland in 50 μL of phosphate buffered saline (PBS). […] Tumors were measured using calipers and the tumor volumes (mm3) were calculated using the formula (length×width2)/2. ? arvested cells from primary tumors where then cytospun ? -treated with poly-1-lysine and fixed then stored in PBS for IFA Microscopy Analysis. […]

The next assay addresses T1, LSD1 and EOMES (Mus musculus, UniProt Q6ZQ88).
T1 construct: CD8^+ T-cells isolated from the 4T1 metastatic xenograft mouse model; endogenous in cells; host or cells: CD8+ T-cells isolated from the tumour micro-environment of treated 4T1 mice
Description: Immunofluorescence co-expression and co-localization of LSD1 and EOMES in CD8+ T-cells. It counts as in vivo. How it is done:
FIG. 6 is a graphical and photographic representation depicting nuclear LSD1 complexes with EOMES in exhausted T-cell signatures. A. Nanostring transcript analysis was performed on isolated CD8^+ T-cells isolated from a 4T1 metastatic cancer mouse model treated with either Group A=Control, Group C: PD1 (10 mg/kg), Group D: Phenelzine (40 mg/kg), or Group F: PD1+Phenelzine. […] B. Immunofluorescence microscopy was performed on CD8^+ T-cells fixed and probed with primary anti-LSD1, anti-EOMES and anti-CD8 antibodies and DAPI. Representative images for each dataset are shown. […] C. […] Plot-profiles were plotted with the use of ImageJ software measuring a series of fluorescent intensities along a line spanning the nucleus. The pattern of the two plots can give an insight into the nature of the relationship between the two fluorochromes. Imagej software with automatic thresholding and manual selection ? for nucleus of cells was used to calculate the Pearson's co ? (PCC) for each pair of antibodies. The PCC Values range from −1=inverse of co-localization, 0=no co-localization, +1=perfect co-localization.
To unravel this role, the present inventors examined the co-expression of LSD1 and EOMES (an exhaustion marker) in CD8^+ T-cells isolated from the 4T1 metastatic xenograft mouse model.
This negative co-localization was unaffected by treatment with PD1 or LSD1 inhibitors (FIG. 7).
A total of 2×10^5 cells were injected per mouse into mammary gland in 50 μL of phosphate buffered saline (PBS). Treatments were started on mice after 15 days post-inoculation of 4T1 cells. […] Tumors were measured using calipers and the tumor volumes (mm3) were calculated using the formula (length×width2)/2. ? arvested cells from primary tumors where then cytospun ? -treated with poly-1-lysine and fixed then stored in PBS for IFA Microscopy Analysis. […] Digital images were analysed using ImageJ software (ImageJ, NIH, Bethesda, Md., USA) to determine the either the Total Nuclear Fluorescent Intensity (TNFI), the Total Cytoplasmic Fluorescent Intensity (TCFI) or total Fluorescent Intensity (TFI).

For `NNCCc1ccccc1` (racemic) [phenelzine sulfate, (±)-2-phenylethylhydrazine], in the assay with CD4+ and CD8+ T-cells (CD4+ T-cells), the “IL-2 production by CD4+ T-cells” value is on record as “much more efficient”. In addition, the “pro-inflammatory/Th1 response (IFN-γ, IL-2 and TNF-α)” value in the assay with CD4+ and CD8+ T-cells (CD4+ and CD8+ T-cells, compared to the control) is listed as “better pro-inflammatory/Th1 response”. For the same compound, the “production of these cytokines (IFN-γ, IL-2, TNF-α)” value with CD4+ and CD8+ T-cells (as compared to the control) was “seems to increase”. The IFN-γ expression result in the assay with IFN-γ and TNF-α is recorded as “no significant effect”. In addition, at LSD1 and EOMES (CD8+ T-cells, nuclear TNFI), the EOMES expression entry is listed as “marked inhibition” and the LSD1 expression result is given as “marked inhibition”. The “LSD1/EOMES nuclear protein complex (co-localization, plot-profiles and PCC)” value on LSD1 and EOMES (nucleus of exhausted CD8+ T-cells) is listed as “markedly inhibited”.

(Values after patent US20210186905A1, “ENHANCING T-CELL FUNCTION AND TREATING A T-CELL DYSFUNCTIONAL DISORDER WITH A COMBINATION OF AN LSD INHIBITOR AND A PD-1 BINDING ANTAGONIST” (EpiAxis Therapeutic Pty Ltd, priority 2017, published 2021).)
